{"source": "ChEMBL document CHEMBL1157539", "about": "“Thousands of chemical starting points for antimalarial lead identification” (Nature, 2010)", "data": [{"test_system": "Plasmodium falciparum", "test": "GSK_TCMDC: Inhibition of Plasmodium falciparum 3D7 in whole erythrocytes, using parasite LDH activity as an index of growth.", "type": "functional, organism-based", "conditions": "Plasmodium falciparum, 3D7", "units": {"XC50": "nM"}, "values": [{"smiles": "O=C(NC1CC1)c1cnc(N2CCC(COc3cccc(F)c3)CC2)c(Cl)c1", "XC50": 1200}, {"smiles": "CCCCNC(c1ccc(Cl)cc1)C(O)c1ccc(Cl)cc1", "note": "(stereo not given)", "XC50": 619}, {"smiles": "CCCCCCCc1c(C)nc2cc(OC)ccc2c1O", "XC50": 62.8}, {"smiles": "CCOc1ncccc1CN1CCC(N2CCc3cc(NC(=O)c4ccco4)ccc32)C1", "note": "(stereo not given)", "XC50": 758}, {"smiles": "CCOc1cc(C(=O)NCCc2ccc(Cl)c(Cl)c2)ccc1-c1nc2cc(Cl)ccc2[nH]1", "XC50": 895}, {"smiles": "COCCNCc1ccc(-c2cccc(CN(C(=O)CCC3CCCC3)C3CCN(Cc4ccccc4)CC3)c2)cc1", "XC50": 938}, {"smiles": "COc1ccc(-c2ccc(NC(=O)c3ccccc3)cc2)cc1CN1CCCN(C)CC1", "XC50": 905}, {"smiles": "CCC(=O)OC(CCN(CC)CC)(c1ccccc1)c1ccccc1", "XC50": 369}, {"smiles": "O=C(Nc1ccc(Cl)cc1C(=O)Nc1cccc(F)c1)c1ccc([N+](=O)[O-])cc1", "XC50": 365}, {"smiles": "CN(Cc1ccncc1)C(Cc1ccccc1)C1CCN(Cc2ccc(O)c(Cl)c2)CC1", "note": "(stereo not given)", "XC50": 747}, {"smiles": "O=C(NCC1COc2ccccc2O1)c1cnc2c(c1)nc(-c1c[nH]c(-c3ccccc3)n1)n2CCSCc1c(F)cccc1Cl", "note": "(stereo not given)", "XC50": 959}, {"smiles": "CCCCOc1ccc(/C=C/c2ccc(-c3c(C)[nH]c(C)c(Cl)c3=O)s2)cc1", "XC50": 395}, {"smiles": "C=CCC(C)n1ncc2c3c(N)nc(N)nc3ccc21", "note": "(stereo not given)", "XC50": 50}, {"smiles": "CS(=O)(=O)NCCCNCc1ccc(-c2ccc(-c3nc4cc(F)ccc4[nH]3)cc2)cc1", "XC50": 935}, {"smiles": "COc1ccc2ccccc2c1CCCCN1CCN(CC(c2ccc(F)cc2)N2CCN(C(C)C)CC2)CC1", "note": "(stereo not given)", "XC50": 809}, {"smiles": "Cc1cc(C)c(NC(=O)N[C@H]2CCN(CCCCCNC(=O)/C=C/c3ccc(Cl)c(Cl)c3)C2)c(C)c1", "XC50": 950}, {"smiles": "COCCN(C(=O)Cc1cccs1)C(C(=O)NCc1ccc(OC)cc1)c1ccc(C(C)C)cc1", "note": "(stereo not given)", "XC50": 845}, {"smiles": "CC(C)(C)OC(=O)N[C@@H](CS(=O)(=O)CCNC(=N)COCc1ccccc1)C(=O)OC(C)(C)C", "XC50": 821}, {"smiles": "COc1ccc(C(=O)CCC(=O)N(CCSC(C)(C)C)Cc2ccc(-c3ccc(CNCCc4ccc(S(C)(=O)=O)cc4)cn3)cc2)cc1F", "XC50": 627}, {"smiles": "O=C(NCCCCN1CC=C(c2ccc3c(c2OCc2ccccc2)CCCC3)CC1)c1ccc(-c2ccc(C(F)(F)F)cc2)cc1", "XC50": 296}, {"smiles": "CC(C)NCc1ccc(-c2cccc(NC(=O)c3cccc(C#N)c3)c2)cc1", "XC50": 406}, {"smiles": "CN(C)CCC1CCCc2ccc(NC(=O)Nc3ccc(-c4ccncc4)c4ccccc34)cc21", "note": "(stereo not given)", "XC50": 1070}, {"smiles": "CCCCN(CCCC)C(=N)c1cccc2c1CCCC2", "XC50": 1560}, {"smiles": "CC(=O)Nc1ccc(-c2nc3ccc(-c4nc5ccc(NC(C)=O)cc5[nH]4)cc3[nH]2)cc1", "XC50": 242}, {"smiles": "C[C@H](Cc1ccc(C[C@@H](C)NCC(O)c2cc(Cl)c(N)c(Cl)c2)cc1)NCC(O)c1cc(Cl)c(N)c(Cl)c1", "note": "(stereo not given in full)", "XC50": 893}, {"smiles": "Cn1c(C2CC3CCC(C2)N3CC2CCC(NC(=O)/C=C/c3ccc(Cl)c(Cl)c3)CC2)nc2ccccc21", "note": "(stereo not given)", "XC50": 563}, {"smiles": "CCn1cnc2c(N3CCCS3(=O)=O)cc(C(=O)N[C@@H](Cc3ccccc3)[C@H](O)CNC(C)(C)c3cccc(C(F)(F)F)c3)cc21", "XC50": 227}, {"smiles": "O=C(NCCCCN1CCC(c2ccc([N+](=O)[O-])cc2)CC1)c1ccc(NC(=O)c2ccc(Cl)cc2)cc1", "XC50": 757}, {"smiles": "CNC(=O)C1Cc2c([nH]c3ccc(Br)cc23)C2(CCN(CCc3ccccc3)CC2)N1", "note": "(stereo not given)", "XC50": 919}, {"smiles": "CCCCOC(=O)c1ccc(Nc2cc(C)nc3ccc(OC)cc23)cc1", "XC50": 640}, {"smiles": "FC(F)(F)c1cccc(CNCC2CCN(Cc3ccc4c(c3)OCO4)CC2)c1", "XC50": 725}, {"smiles": "CC[C@H]1CN2CC[C@H]1C[C@@H]2[C@H](O)c1ccnc2ccc(O)cc12", "XC50": 1040}, {"smiles": "Cc1ccc(S(=O)(=O)N(C)c2ccccc2C(=O)Nc2ccccc2Oc2ccccc2)cc1", "XC50": 919}, {"smiles": "O=c1cc(NCCCNCc2ccc(Cl)c(Cl)c2)[nH]c2ccc(Oc3ccccc3)cc12", "XC50": 850}, {"smiles": "O=C(NC(=O)c1ccccc1)NC1CCN(c2ccnc3cc(Cl)ccc23)C1", "note": "(stereo not given)", "XC50": 584}, {"smiles": "Cc1csc(-c2nc(NCc3cccnc3)ncc2-c2ccsc2)n1", "XC50": 1190}, {"smiles": "O=C(Nc1ccc(OC(F)(F)F)cc1)NC1CCN(c2ccnc3ccccc23)CC1", "XC50": 297}, {"smiles": "Cc1cccc2nc(-c3ccc(-c4cccc(CN5CCN(CCN6CCOCC6)CC5)c4)s3)[nH]c12", "XC50": 153}, {"smiles": "O=C(/C=C/c1ccc(Cl)c(Cl)c1)NCCCCCN1CCCN(C(=O)Nc2ccc(F)c(F)c2)CC1", "XC50": 803}, {"smiles": "Cc1c(CNCCCNc2cc(=O)c3ccccc3[nH]2)sc(C(F)=C(F)F)c1Br", "XC50": 836}, {"smiles": "O=C1NC(c2ccccc2)C2(CCN(CC(O)COc3cccc4ncccc34)CC2)O1", "note": "(stereo not given)", "XC50": 743}, {"smiles": "Cc1cccc(-c2ccc(NC(=O)Nc3ccc4nccc(N5CCN(C)CC5)c4c3)cc2C)n1", "XC50": 212}, {"smiles": "CCc1cccc2sc(N3CCN(C(=O)c4ccc([N+](=O)[O-])o4)CC3)nc12", "XC50": 773}, {"smiles": "Cc1cccc(CNc2nc(C)cc(NCCC(=O)NCc3cccc(F)c3)n2)c1", "XC50": 850}, {"smiles": "COc1ccc(Br)cc1/C=C/C(=O)Nc1ccc(C2CCN(C)CC2)cc1", "XC50": 502}, {"smiles": "OCC1CCN(Cc2ccc(-c3ccc(-c4nc5ccccc5[nH]4)cc3)cc2)CC1", "XC50": 898}, {"smiles": "O=C(NCCCCN1CCC(c2cccc3ccccc23)CC1)c1ccc(-c2ccc(C(F)(F)F)cn2)cc1", "XC50": 867}, {"smiles": "CC(C)Cn1cc(C2CCN(CCN3CCC(CNC(=O)c4ccc(NC(=O)c5cc(Cl)cc(Cl)c5)cc4)CC3)CC2)c2ccccc21", "XC50": 693}, {"smiles": "COC(=O)c1cccc(CNCc2ccc(-c3ccc(-c4nc5cc(C(F)(F)F)ccc5[nH]4)cc3)cc2)c1", "XC50": 298}, {"smiles": "O=C(NC1CCCCC1)C(c1cccs1)N(CCc1ccccc1)C(=O)c1ccco1", "note": "(stereo not given)", "XC50": 1040}, {"smiles": "Nc1ncc(-c2ccsc2)cc1-c1nc2ccccc2[nH]1", "XC50": 851}, {"smiles": "Cc1cc(NC(=O)c2cccs2)ccc1OC1CCN(Cc2ccc(F)cc2)C1", "note": "(stereo not given)", "XC50": 669}, {"smiles": "CCOC(=O)c1ccc2[nH]c(-c3ccc(C(=O)NCc4ccc(C(C)(C)C)cc4)cc3)nc2c1", "XC50": 847}, {"smiles": "CC(C)NC(=N)NN=Cc1ccc(Cl)c(Cl)c1", "XC50": 534}, {"smiles": "CN1CCN(Cc2ccc(-c3cccc(-c4nc5ccccc5[nH]4)c3)cc2)CC1", "XC50": 1390}, {"smiles": "CC(C)C1C(O)=C(c2ccc3ccccc3c2)C(=O)N1Cc1cccc(F)c1", "note": "(stereo not given)", "XC50": 812}, {"smiles": "NC1=NC(c2ccccc2)(c2ccccc2)C(=O)N1C1CCCCC1", "XC50": 661}, {"smiles": "CCCc1cccc(OC)c1OCCCON1C(N)=NC(N)=NC1(C)C", "XC50": 3.2}, {"smiles": "Cc1cc(-c2ccc(NC(=O)Nc3ccc4nccc(N5CCN(C)CC5)c4c3)cc2C)cc(C)n1", "XC50": 153}, {"smiles": "Cc1cnccc1/C=C/c1cccc(OCCN2CCc3ccc(S(C)(=O)=O)cc3CC2)c1", "XC50": 267}, {"smiles": "COc1ccc2[nH]c(C)cc(=NN=Cc3ccncc3)c2c1", "XC50": 697}, {"smiles": "CCN1CCC(N(Cc2ccc(-c3ccc(C(F)(F)F)cc3)cc2)C(=O)Cn2c(CCc3cccc(F)c3F)cc(=O)c3c2CCC3)CC1", "XC50": 972}, {"smiles": "COc1cc2c(cc1OC)C(c1ccc(Br)cc1)CN(C)CC2", "note": "(stereo not given)", "XC50": 943}, {"smiles": "O=C(Nc1ccncc1)c1cn(-c2ccccc2)nc1-c1cccs1", "XC50": 977}, {"smiles": "CC(C)CCNCc1ccc(OCc2cccc(COc3ccc(CNCCC(C)C)cc3I)c2)c(I)c1", "XC50": 453}, {"smiles": "COc1ccccc1CCNC(=O)c1cnc(N2CCN(c3ccncc3)CC2)c(Cl)c1", "XC50": 1150}, {"smiles": "COc1ccc2c(=O)c3ccc(OC)cc3[nH]c2c1", "XC50": 810}, {"smiles": "Oc1cc(Nc2ccnc3cc(-c4cccc(CN5CCOCC5)c4)ccc23)c(F)cc1Cl", "XC50": 207}, {"smiles": "CCOc1ccc(C(=O)Nc2cc(Br)c3c(c2)CNCC3)cc1C(F)(F)F", "XC50": 939}, {"smiles": "Fc1cccc(COc2ccc(Nc3ncnc4ccc(-c5nnc(C(F)(F)F)o5)cc34)cc2Cl)c1", "XC50": 579}, {"smiles": "COc1ccc2nccc([C@@H](O)CN3CCC(NC(=O)[C@@H]4Cc5ccccc5CN4C(=O)OC(C)(C)C)CC3)c2c1", "XC50": 892}, {"smiles": "COc1ccc(CNCc2ccccc2)cc1-c1ccc(S(=O)(=O)NCCN2CCCC2)s1", "XC50": 674}, {"smiles": "COc1ccc(NC(=O)[C@H](CC(C)C)Nc2cc(C)nc(NCCc3ccc(F)cc3)n2)cc1", "XC50": 925}, {"smiles": "O=C(Nc1ccccc1)Nc1cccc(-c2ccc(-c3nc4cc(C(F)(F)F)ccc4[nH]3)cc2)c1", "XC50": 231}, {"smiles": "O=C(NCCCCN1CCC(c2ccc(C(F)(F)F)cc2C(F)(F)F)CC1)c1ccc(NC(=O)c2ccc(Cl)cc2)cc1", "XC50": 613}, {"smiles": "COc1ccc(CN2CCCC(OC(c3ccc(F)cc3)c3ccc(F)cc3)C2)c(O)c1", "note": "(stereo not given)", "XC50": 607}, {"smiles": "O=C(/C=C/c1ccc(Cl)c(Cl)c1)NCCCCCN1CCCN(C(=O)Nc2cc(Cl)nc(Cl)c2)CC1", "XC50": 786}, {"smiles": "CN(Cc1ccc(C#N)cc1)C1CCN(c2cc(NC(=O)c3cccc(F)c3)ccn2)CC1", "XC50": 1750}, {"smiles": "Clc1ccc(Sc2cncnc2N2CCOCC2)cc1", "XC50": 40.2}, {"smiles": "CC(C)C[C@@H](C(=O)Nc1ccc(Cc2ccc(NC(=O)[C@H](CC(C)C)N(C)C(=O)OC(C)(C)C)cc2)cc1)N(C)C(=O)OC(C)(C)C", "XC50": 821}, {"smiles": "Cc1ccccc1CNCC(O)c1cccc(C(F)(F)F)c1", "note": "(stereo not given)", "XC50": 881}, {"smiles": "CC(C)(C)c1nn(-c2ccc(Cl)cc2)c2[nH]c(=O)c(CNC3CCCC3)cc12", "XC50": 234}, {"smiles": "Fc1cc(Cl)ccc1Nc1ccnc2cc(-c3ccc(CN4CCSCC4)o3)ccc12", "XC50": 782}, {"smiles": "COc1ccc(C(=O)N2CCC(C(=O)NC(C)c3ccc(-n4ccnc4)cc3)CC2)c2ccccc12", "note": "(stereo not given)", "XC50": 1130}, {"smiles": "Nc1cc2c(C3CCN(CC4CCN(C(=O)/C=C/c5ccc(Cl)c(Cl)c5)CC4)CC3)c[nH]c2cn1", "XC50": 975}, {"smiles": "COc1ccc(C(=O)CCC(=O)N(Cc2ccc(-c3ccc(CNCCc4ccc(S(C)(=O)=O)cc4)cn3)cc2)C2CC3CCC2C3)cc1F", "note": "(stereo not given)", "XC50": 927}, {"smiles": "CN(C)CCCSc1ccccc1NC(=O)C=Cc1ccccc1", "XC50": 964}, {"smiles": "COc1ccc(CON2C(=N)N=C(N)NC2(C)C)cc1OC", "XC50": 6.06}, {"smiles": "CN(Cc1cccc(F)c1)C1CCCN(c2cc(NC(=O)c3ccccc3)ccn2)C1", "note": "(stereo not given)", "XC50": 919}, {"smiles": "CC(=O)N(Cc1ccccc1-c1cccc(CNCCc2ccccc2)c1)C1CCN(Cc2ccccc2)CC1", "XC50": 1100}, {"smiles": "COc1cc(-c2nc3ccc(N4CCN(C)CC4)cc3[nH]2)cc(OC)c1OC", "XC50": 1270}, {"smiles": "CC[C@H]1CN2CCc3cc(OC)c(OC)cc3[C@@H]2C[C@@H]1C[C@H]1NCCc2c1cc(OC)c(O)c2I", "XC50": 216}, {"smiles": "CCOc1cc(CNCCCCCCNCc2cc(OCC)c(OCC)c3ccccc23)c2ccccc2c1OCC", "XC50": 284}, {"smiles": "CC(C)c1ccc(CN2CCCCC(NC(=O)c3cc(-c4cccc(F)c4)cs3)C2)cc1", "note": "(stereo not given)", "XC50": 945}, {"smiles": "COc1ccc(C(=O)NC(Nc2ccc([N+](=O)[O-])cc2)C(Cl)(Cl)Cl)cc1", "note": "(stereo not given)", "XC50": 1080}]}]}
